According to US4448785A, “N-Unsaturated fatty acid amides of tryptophan ester homologues and anti-cholesteric use thereof” (Sandoz, Inc., priority 1982, dated 1984):
Where “and” joins values, the source holds several entries; their conditions need not be identical. Equal entries are not always repeated.

Legend:
[1] = test system: monkey aortic smooth muscle cells; assay: Cell culture cholesterol ester test, monkey aortic smooth muscle cells (Table 2); assay type: cell-based, Rhesus monkey; conditions: 5% HRS
Text: The compounds of formula I of this invention are useful as pharmaceutical agents in animals. In particular, the compounds of the formula I are useful in controlling the cholesterol ester content of mammalian arterial walls and are therefore particularly indicated for use as anti-atherosclerotic agents, ie. agents useful in the prophylactic treatment of atherosclerosis and in the controlling of atherosclerotic conditions due to cholesterol ester accumulation in the arterial walls. Such ability of the compounds of the formula I is indicated e.g., by known test procedures in which the total cholesterol ester content of cultured cells is shown to be reduced by a test compound, as compared to untreated cells, and carried out, for example, by the following procedures:
(§1) Rhesus monkey smooth muscle cells (from the arterial, eg aorta wall) obtained by the method of K. Fisher-Dzoga et al (Experimental and Molecular Pathology 18, 162-176 (1973)) are routinely grown in 75 cm^2 tissue culture flasks using Minimum Essential Medium (Eagle) supplemented with 10% fetal bovine serum. For testing a 75 cm^2 flask with a near confluent cell growth is selected. The cells are removed from the flask surface by mild enzymatic treatment with pronase. After centrifugation and decanting the enzyme solution, the cell pellet is resuspended in an appropriate volume of media for seeding the desired number of 60 mm tissue culture dishes. Five (5) ml of the diluted cell suspension are pipetted into each dish. After seeding, the dishes are labelled with the cell type, date and flask number of origin and incubated at 37° C. in approximately 5% CO2 atmosphere in a high humidity incubator. When the cultures are confluent, the actual drug testing is begun. Test compounds are routinely solubilized in 100% ethanol. An equivalent amount of ethanol is added to control groups as well. The tissue culture dishes are randomly divided into groups. To one group, hyperlipemic rabbit serum (HRS) is added at 5% by volume (control). To the remaining groups, 5% HRS and 1 mg per 100 ml of media of the test compound are added. The dishes are returned to the incubator for an additional 24 hours. All operations through to the final incubation are performed using sterile technique in a laminar flow hood. After the incubation period, the dishes are microscopically observed with the Zeiss Axiomat with phase contrast optics and the conditions of the cultures are recorded; especially in regard to the size, number and configuration of cytoplasmic inclusions and to cellular morphology. The media is removed from the cultures and 0.9% sodium chloride solution is added. The cells are removed from the flasks with the aid of a rubber policeman and transferred to a conical graduated centrifuge tube. The cells are washed three times by suspending in an isotonic salt solution, centrifuging at 800× g for 10 minutes and aspirating the supernatant fluid.
(§2) An appropriate volume of isopropyl alcohol (about 1 ml/mg protein) is then added to the cell pellet and the sample sonicated with a micro probe (140×3 mm) for 10 seconds with a "LO" setting of 50 on a Bronwell Biosonik IV. After centrifugation for 15 minutes at 800× g, the clear supernatant is decanted and an aliquot taken for cholesterol analysis.
The residue is dissolved in 0.1 N sodium hydroxide and an aliquot taken for protein determination by the method of Lowry, et al. (J. Biol. Chem. 193, 265; 1951). […]

Fu5AH rat hepatoma cells = assay: Inhibition of cholesterol ester accumulation in Fu5AH cells; assay type: cell-based
Text: as §1, with “For” for “Rhesus monkey smooth muscle cells (from the arterial, eg aorta wall) obtained by the method of K. Fisher-Dzoga et al (Experimental and Molecular Pathology 18, 162-176 (1973)) are routinely grown in 75 cm^2 tissue culture flasks using Minimum Essential Medium (Eagle) supplemented with 10% fetal bovine serum. For”, “To the remaining groups, 5% HRS and 1 mg per 100 ml of media of the test compound are added.” left out
as §2
An aliquot of 0.4 ml of free reagent (Reagent A, Table 1 below) is added to a 10×75 mm disposable glass test tube to which 20 μl of the isopropyl alcoholic solution is added and mixed. After standing at room temperature for approximately 5 minutes, 0.8 ml of 0.5 N sodium hydroxide (Reagent C, Table 1) is added and mixed. The fluorescence is measured with an Aminco-Bowman spectrophotofluorometer with an excitation wavelength of 325 nm and emission wavelength of 415 nm. A 1 cm light path cuvette is used with a xenon lamp, an IP28 photomultiplier tube and 2 mm slits.
Total cholesterol: The same procedure described above for free cholesterol is followed for total cholesterol except that the total reagent (Reagent B, Table 1) is used instead of the free reagent and the samples are incubated for 20 minutes at 37° C. before the addition of the 0.5 N sodium hydroxide solution (Reagent C, Table 1).
The amount of cholesterol ester is found by subtracting the amount of free cholesterol from the total cholesterol content of the cells determined by the assay.

[2] = 1 mg test compound per 100 ml of media, 24 hours, listed as A

## CCCCCCCC/C=C\CCCCCCCC(=O)NC(Cc1c[nH]c2ccccc12)C(=O)OCC (single isomer, unassigned) [Example 2a, α-[(1-oxo-9-octadecenylamino)]-1H-indole-3-propanoic acid, ethyl ester (cis isomer)]
[1]; [2]
  Cholesterol Free: 50.4 μg/mg cell protein and 54.4 μg/mg cell protein
  Cholesterol Total: 57.4 μg/mg cell protein and 60.3 μg/mg cell protein
[1]; 1 mg test compound per 100 ml of media, 24 hours, single culture, controls 23.1 and 21.4, listed as A
  Cholesterol Ester Amount: 7.0 μg/mg cell protein and 5.9 μg/mg cell protein
[1]; decrease, significant at P less than 0.01, 1 mg per 100 ml of media
  Cholesterol Ester Percent from control: 71.0%
[1]; mean of two cultures, 1 mg per 100 ml of media, control mean 22.3
  Cholesterol Ester mean: 6.5 μg/mg cell protein
Fu5AH rat hepatoma cells; 10 μg/ml, 5% HRS, Mean ± SEM, p < .01 vs Hyperlipemic Control 40.7 ± 0.6
  Cholesterol Free: 76.8 ± 6.5 μg/mg Cell Protein
Fu5AH rat hepatoma cells; 10 μg/ml, 5% HRS, Mean ± SEM, p < .01 vs Hyperlipemic Control 152.5 ± 2.3
  Cholesterol Ester: 40.6 ± 1.3 μg/mg Cell Protein
Fu5AH rat hepatoma cells; 10 μg/ml, 5% HRS, Mean ± SEM, p < .01 vs Hyperlipemic Control 193.0 ± 2.9
  Cholesterol Total: 117.4 ± 5.2 μg/mg Cell Protein
Fu5AH rat hepatoma cells; 10 μg/ml, Table 5
  % inh (cholesterol ester accumulation): 73%
Fu5AH rat hepatoma cells; Fu5AH cells
  inhibition of cholesterol accumulation by cells: marked inhibition of cholesterol accumulation
Fu5AH rat hepatoma cells; calculated from Table 5 (10 μg/ml), hyperlipemic control = 0.21
  F/T: 0.65
